Read-outs that look alike come from different tables or passages of the source.
Assays:
naïve WT C57BL/6 mice = experiment: Hypoferremia in naïve mice; assay type: in vivo, mouse; settings: Mus musculus, po, 3 h, read-out: Serum Iron Reduction at 3 h (%)
Procedure: Female C57BL/6 mice (Janvier, France) at age of 9 weeks were fed a standard diet (Harlan Provimi Kliba 3436) and treated per os (p.o.) with compounds or the corresponding amount of vehicle at a volume of 10 ml/kg body weight. Fpn inhibitors were formulated in 0.5% methylcellulose/water or 20% cremophor EL/water and dosed p.o. in mice at 10, 30 or 100 mg/kg body weight. Three hours later, mice were pre terminally anesthetized in isoflurane chambers and blood was collected by retro-orbital bleeding. Mice were sacrificed by cervical dislocation and spleens, livers and duodena were harvested and used for biomarker analysis. All experiments have been conducted in compliance with the license approved by the responsible veterinarian authorities. Serum was isolated by centrifugation of blood into gel-containing microtainers and serum iron was determined by the MULTIGENT Iron assay (Abbott Diagnostics, 6K95). Eight mice per group were used and one-way ANOVA with Bonferroni's multiple comparison test was performed to analyze the statistical differences between the experimental groups.

ferroportin (Fpn) = target: T1, ferroportin (Fpn) (Mus musculus, UniProt Q9JHI9); experiment: Hepcidin Internalization Assay (J774); assay type: cell-based; settings: average of multiple measurements; inhibition of TMR-hepcidin (25 nM) internalization into J774 cells; read-out: J774 IC50
T1 construct: host or cells: J774 mouse macrophage cell line, Fe(III)-NTA induced
T1 sequence (Q9JHI9 1-570): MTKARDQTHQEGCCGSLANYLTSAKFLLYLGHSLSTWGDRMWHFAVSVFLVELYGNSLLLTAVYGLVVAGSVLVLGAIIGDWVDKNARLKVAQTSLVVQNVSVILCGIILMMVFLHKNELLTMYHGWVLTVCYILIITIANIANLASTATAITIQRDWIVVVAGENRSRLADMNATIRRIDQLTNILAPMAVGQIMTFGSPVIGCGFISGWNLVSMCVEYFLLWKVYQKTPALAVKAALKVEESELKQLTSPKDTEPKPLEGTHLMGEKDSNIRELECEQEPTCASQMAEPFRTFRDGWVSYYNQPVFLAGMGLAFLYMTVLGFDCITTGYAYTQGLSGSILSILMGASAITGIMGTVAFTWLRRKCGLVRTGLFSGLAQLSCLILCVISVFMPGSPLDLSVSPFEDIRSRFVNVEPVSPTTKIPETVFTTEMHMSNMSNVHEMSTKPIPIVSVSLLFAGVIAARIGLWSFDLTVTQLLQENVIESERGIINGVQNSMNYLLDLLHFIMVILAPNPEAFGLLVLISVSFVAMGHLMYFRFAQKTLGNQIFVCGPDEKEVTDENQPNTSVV
Summary of the method: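 Inhibition of fluorescent TMR-hepcidin uptake via ferroportin was imaged in fixed J774 cells after a 2 h, 37 °C co-incubation with compound dilutions; cells were pre-cultured overnight with 200 μM Fe(III)NTA. Internalized TMR signal per cell (Sum(Mean)) was fitted as log(inhibitor) vs. response for IC50, in triplicate.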

human Fpn-GFP fusion = target: T2, human Fpn-GFP fusion (Homo sapiens, UniProt Q9NP59); experiment: Inhibition of ferroportin mediated iron export activity in an iron response assay (BLAzer); assay type: cell-based; settings: average of multiple measurements; HEK-293 cell line #354; read-out: BLAzer EC50
T2 construct: expressed in transfected cells; host or cells: HEK-293 cell line #354 (derivative of HEK-293 Tet-ON Advanced, Clontech)
T2 sequence (Q9NP59 1-571): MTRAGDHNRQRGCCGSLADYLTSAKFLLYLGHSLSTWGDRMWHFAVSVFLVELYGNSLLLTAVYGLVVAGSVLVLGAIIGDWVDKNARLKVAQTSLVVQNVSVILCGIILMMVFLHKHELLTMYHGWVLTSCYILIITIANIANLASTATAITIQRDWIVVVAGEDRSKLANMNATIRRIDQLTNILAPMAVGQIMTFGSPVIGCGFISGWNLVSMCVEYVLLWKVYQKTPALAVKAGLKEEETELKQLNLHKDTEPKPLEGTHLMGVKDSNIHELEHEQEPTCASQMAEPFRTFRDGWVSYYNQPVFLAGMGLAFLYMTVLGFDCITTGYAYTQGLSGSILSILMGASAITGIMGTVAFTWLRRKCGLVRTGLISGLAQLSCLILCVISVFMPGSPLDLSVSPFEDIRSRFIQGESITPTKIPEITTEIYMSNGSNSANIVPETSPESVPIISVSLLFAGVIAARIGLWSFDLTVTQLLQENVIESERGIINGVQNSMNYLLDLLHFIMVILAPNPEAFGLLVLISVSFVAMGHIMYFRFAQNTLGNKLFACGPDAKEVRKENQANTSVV
Text: Intracellular iron levels are indirectly measured in this assay by monitoring the activity of a beta-lactamase (BLA) reporter gene fused to the human ferritin promoter and the associated iron regulatory element (IRE) contained within the 5′ untranslated region of the ferritin mRNA. Expression of ferroportin (Fpn) in such a cell line leads to iron efflux and lower iron levels as reflected by lower activity of the reporter gene. On the other hand, inhibition of Fpn-mediated iron efflux results in elevated cellular iron levels which is detected as increased reporter gene activity. Small molecular weight Fpn inhibitor compounds were tested for dose-dependent effects in this in vitro iron response assay as described below.
The HEK-293 cell line #354 was generated by stable integration of (i) a human Fpn-GFP fusion construct inserted in a derivative of the doxycycline-inducible pTRE-Tight-BI plasmid (Clontech, Cat. 631068) and (ii) a human ferritin promoter-BLA reporter gene into a derivative of the HEK-293 Tet-ON Advanced cell line (Clontech). […] After overnight incubation, 10 μl/well of dilution series of the test compounds were added in quadruplicates and plates were further incubated overnight at 37° C. with 5% CQ. Cells were washed 3 times with HBSS leaving 25 μl per well. BLA activity was detected by adding 5 μl/well of the GeneBlazer reagent CCF4-AM (Invitrogen, Cat. K1085) to the cells. After incubation of the plates in the dark at 18° C. for 60 min., blue and green fluorescence signals were measured in a Safre2 fluorescence plate reader (Tecan) with excitation at 410 nm and emissions at 458 nm (blue) and 522 nm (green). The ratio of blue/green fluorescence as a measure for BLA activity was calculated and EC50 values were determined with the calculated blue/green fluorescence ratios as described for the hepcidin internalization assay.

human Fpn = target: T3, human Fpn (Homo sapiens, UniProt Q9NP59); experiment: Biophysical Ferroportin-Hepcidin Binding Assay (fluorescence polarization); settings: average of multiple measurements; 1 μM human Fpn, 20 nM TMR-hepcidin; read-out: FP IC50
T3 construct: FLAG (C); made in house; host or cells: Pichia pastoris
T3 sequence (Q9NP59 1-571): T2 sequence (Q9NP59 1-571)
Summary of the method: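 FP readout: a dose-dependent drop in TMR-hepcidin polarization (mP, from parallel and perpendicular emission) marked blocked binding to FLAG-tagged human Fpn purified from Pichia pastoris. Final levels were 1 μM Fpn and 20 nM TMR-hepcidin, with compound dilutions in duplicate, incubated 90 min at room temperature.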

[1] = Dose 10 mg/kg p.o., naïve WT C57BL/6 mice, relative to vehicle
[2] = Dose 30 mg/kg p.o., naïve WT C57BL/6 mice, relative to vehicle
[3] = Dose 100 mg/kg p.o., naïve WT C57BL/6 mice, relative to vehicle

IC50 (ferroportin (Fpn)) [nM]	EC50 (human Fpn-GFP fusion) [nM]	IC50 (human Fpn) [nM]	Compound	inhibition in vivo at 10 mg/kg (naïve WT C57BL/6 mice; [1]) [%]	inhibition in vivo at 30 mg/kg (naïve WT C57BL/6 mice; [2]) [%]	inhibition in vivo at 100 mg/kg (naïve WT C57BL/6 mice; [3]) [%]	inhibition in vivo at 10 mg/kg (naïve WT C57BL/6 mice) [%]	inhibition in vivo at 30 mg/kg (naïve WT C57BL/6 mice) [%]	inhibition in vivo at 100 mg/kg (naïve WT C57BL/6 mice) [%]
38400			O=C(NCc1ccccc1)c1csc(CCNCc2ccncn2)n1 [Example 27]	20	30	45			
1320	21000	5740	O=C(c1csc(CCNCc2nc3ccccc3[nH]2)n1)N1CCc2ncccc2C1 [Example 107]						
740	27300	660	O=C(CCNCCc1nc2ccccc2[nH]1)NCC(=O)NCc1ncccc1F [compound 190]						
610	18100	550	O=C(NCCCCNCc1nc2ccccc2[nH]1)NCc1ncccc1F [compound 197]						
3140	45100	5650	O=C(NCc1ncccc1F)N1CCCC(CCNCCc2nc3ccccc3[nH]2)C1 (centres unmarked) [compound 200]						
1930	39400	790	O=C(CNC(=O)C1CN(CCc2nc3ccccc3[nH]2)C1)NCc1ncccc1F [compound 201]						
360	16900	147	O=C(NCc1ncccc1F)c1cncc(CCNCc2nc3ccccc3[nH]2)c1 [compound 221]						
1900	12000	267	O=C(NCc1ncccc1F)c1cc(CCNCc2nc3ccccc3[nH]2)ccn1 [compound 232]						
188	6140	295	O=C(NCc1ncccc1F)c1cncc(CCNCCc2nc3cc(F)ccc3[nH]2)c1 [compound 245]						
276	12900	263	O=C(NCc1ncccc1F)c1cncc(CCNCCc2nc3c(F)cccc3[nH]2)c1 [compound 246]						
363	6340	306	O=C(NCc1ncccc1F)c1cncc(C2CN(CCc3nc4c(F)cccc4[nH]3)C2)c1 [compound 248]						
			O=C(NCc1ncccc1F)c1cn(CCNCCc2nc3ccccc3[nH]2)nn1 [compound 277]				6	21	54

Compound	IC50 (ferroportin (Fpn)) [nM]	EC50 (human Fpn-GFP fusion) [nM]	IC50 (human Fpn) [nM]	inhibition in vivo at 10 mg/kg (naïve WT C57BL/6 mice; [1]) [%]	inhibition in vivo at 30 mg/kg (naïve WT C57BL/6 mice; [2]) [%]	inhibition in vivo at 100 mg/kg (naïve WT C57BL/6 mice; [3]) [%]	inhibition in vivo at 10 mg/kg (naïve WT C57BL/6 mice) [%]	inhibition in vivo at 30 mg/kg (naïve WT C57BL/6 mice) [%]	inhibition in vivo at 100 mg/kg (naïve WT C57BL/6 mice) [%]
O=C(NCc1ccccn1)c1csc(CCNCCc2nc3ccccc3[nH]2)n1 [Example 58]	10			20	30	40			
O=C(NCc1ncc(C(F)(F)F)cc1Cl)c1csc(CCNCc2nc3ccccc3[nH]2)n1 [Example 101]	280	2920	315						
O=C(NCc1ncc(F)cc1Cl)c1csc(CCNCc2nc3ccccc3[nH]2)n1 [Example 102]	58	1850	258						
Cc1cc(C)c(CNC(=O)c2csc(CCNCc3nc4ccccc4[nH]3)n2)cn1 [Example 105]	77	2630	420						
O=C(NCc1ncc(F)cc1F)c1csc(CCNCc2nc3ccccc3[nH]2)n1 [Example 108]	130	4120	478						
O=C(NCc1ncccc1Cl)c1nc(CCNCc2nc3ccccc3[nH]2)sc1Cl [Example 159]	91			4	26	60			
O=C(NCc1ncccc1Cl)c1ncn(CCNCc2nc3ccccc3[nH]2)n1 [Example 170]	482	3960	280						
O=C(NCc1ccccn1)c1coc(CCNCCc2nc3ccccc3[nH]2)n1 [Example 171]	26			10	42	61			
O=C(NCc1ncccc1F)c1csc(C2CN(CCc3nc4ccccc4[nH]3)C2)n1 [Example 193]	287			13	11	31			
